Data: patent publication US9174996B2, “Protein kinase inhibitors” (Astar Biotech LLC, priority 2012, dated 2015)
Where two headings read alike, the source gives them in different places.

Columns and labels:
KU812 = experiment: MTT cell viability assay, Experiment 3; assay type: cell-based; details: Homo sapiens
From the text: (§1) This study evaluated the effect of the pure optical isomers on human leukemia cell viability in vitro. Ponatinib was used as the positive control. Two BCR-ABL-positive human leukemia cell lines, K562 and KU812, were used in this study. Besides, Ba/F3 cell transfectants expressing native or T315I BCR-ABL, whose viability is dependent on ectopically expressed BCR-ABL, were also used in this work. Ba/F3 cells expressing BCR-ABL^T315I were used for testing the efficiency of tested compounds on point mutation BCR-ABL^T315I, which cause drug resistance to Imatinib (Gleevec). U937 and JURKAT, two BCR-ABL-negative human leukemia cell lines, were employed to test the selectivity of tested compounds.
(§2) Cells were seeded in 24-well plates, and treated with drugs at corresponding concentrations. Cell viability was measured using a MTT (3-(4,5-dimethylthiazol-2-yl)-2,5-diphenyltetrazolium bromide)-based colorimetric assay with a 96-well plate reader. IC50 values were calculated using the mean of two independent experiments.

U937 = experiment: MTT cell viability assay, Experiment 3; assay type: cell-based; details: Homo sapiens
From the text: as §1, §2

JURKAT = experiment: MTT cell viability assay, Experiment 3; assay type: cell-based; details: Homo sapiens, read-out: IC50 cell viability, Non-CML leukemia cells JURKAT
From the text: as §1, §2

K562 = experiment: MTT cell viability assay, Experiment 3; assay type: cell-based; details: Homo sapiens
From the text: as §1, §2

[1] = test system: Ba/F3 harboring the T315I mutant isoform of BCR-ABL; experiment: BaF3/BCR-ABL T315I mouse xenograft model, Experiment 4; assay type: in vivo; details: oral, 14 days, NOD SCID mice
Description: The murine pro-B cell line Ba/F3 harboring the T315I mutant isoform of BCR-ABL was subcutaneously injected into NOD SCID mice (NOD.CB17-Prkdc^scid/J). […] The tumor volumes in two dimensions and the body weights of the mice were measured three times a week (volume=L×W^2×0.5).

[2] = target: Ba/F3 cells expressing native BCR-ABL (Homo sapiens, UniProt P00519); experiment: MTT cell viability assay, Experiment 3; assay type: cell-based, murine; details: Mean ± S.E.M, two independent experiments, read-out: IC50 cell viability, Ba/F3 cells Native BCR-ABL
From the text: as §1, with “Ponatinib was used as the positive control.” left out
as §2

[3] = target: Ba/F3 cells expressing BCR-ABL T315I (Homo sapiens, UniProt P00519, T315I, cells depend on it); experiment: MTT cell viability assay, Experiment 3; assay type: cell-based, murine; details: Mean ± S.E.M, two independent experiments, read-out: IC50 cell viability, Ba/F3 cells T315I BCR-ABL
From the text: as §1, with “Ponatinib was used as the positive control.” left out
as §2

[4] = KU812, MTT, Mean ± S.E.M, two independent experiments, read-out: IC50 cell viability, CML leukemia cells KU812
[5] = U-937, MTT, Mean ± S.E.M, two independent experiments, read-out: IC50 cell viability, Non-CML leukemia cells U937
[6] = MTT, Mean ± S.E.M, two independent experiments
[7] = K562, MTT, Mean ± S.E.M, two independent experiments, read-out: IC50 cell viability, CML leukemia cells K562

IC50 (U937; [5])	IC50 (JURKAT; [6])	IC50 (K562; [7])	Structure (SMILES)	IC50 (KU812; [4])	TGI (Tumor growth inhibition) ([1]; 5 mg/kg/day)	GI50 [2]	GI50 [3]	TGI (Tumor growth inhibition) ([1]; 10 mg/kg/day)	TGI (Tumor growth inhibition) ([1]; 20 mg/kg/day)	IC50 (KU812; KU812, read-out: IC50 cell viability, CML leukemia cells KU812)	IC50 (U937; U-937, read-out: IC50 cell viability, Non-CML leukemia cells U937)	IC50 (JURKAT)	IC50 (K562; K562, read-out: IC50 cell viability, CML leukemia cells K562)
> 1000 nM	> 1000 nM	0.6 ± 0.1 nM	CN1CCN([C@H]2CC(F)(F)c3cc(NC(=O)c4ccc(Cl)c(C#Cc5cnc6cccnn56)c4)ccc32)CC1 (single isomer, unassigned) [Compound 38-(S)]	0.2 ± 0.1 nM	81%	2.2 ± 0.3 nM	3.8 ± 0.2 nM						
868 ± 88.7 nM	851 ± 25.7 nM	0.4 ± 0.1 nM	Cc1ccc(C(=O)Nc2ccc3c(c2)C(F)(F)C[C@@H]3N2CCN(C)CC2)cc1C#Cc1cnc2cccnn12 [Compound 36-(S), (S)-N-(1,1-difluoro-2,3-dihydro-3-(4-methylpiperazin-1-yl)-1H-indan-6-yl)-3-(2-(imidazo[1,2-b]pyridazin-3-yl)ethynyl)-4-methylbenzamide]	0.1 ± 0.1 nM		2.1 ± 0.2 nM	4.7 ± 1.3 nM	105%	108%				
			Cc1ccc(C(=O)Nc2ccc(CN3CCN(C)CC3)c(C(F)(F)F)c2)cc1C#Cc1cnc2cccnn12 [Ponatinib, reference compound]					75%	94%	0.1 ± 0.1 nM	246 ± 12.5 nM	295 ± 5 nM	0.3 ± 0.1 nM
